Source: PMC13242511, “Disrupting Notch signalling by a small molecule inhibiting dihydroorotate dehydrogenase activity” (Scientific Reports, 2026)
Values joined by “and” are separate entries in the source; they are usually repeats but may differ in a detail not shown here. Identical values can stand only once.

Experiments:
Format in all cases: cell-based
BT-20 cells = test: Growth inhibition, metabolic activity (CellTiter-Glo); details: Homo sapiens; BT-20, six days; read-out: approximated IC50, metabolic activity
Source text: (§1) We next investigated whether compounds A-E affected growth and viability of cell lines from T-cell acute lymphoblastic leukaemia (T-ALL) and breast cancer, two tumour types in which elevated Notch signalling has been implicated in tumorigenesis. […] When testing analogues of compounds B and C, five of the seven B analogues and one of the two C analogues produced dose–response curves and IC50s, which however were higher compared to the original hits (Supplemental Fig. 5A; IC50s are presented in Supplemental Table 6).
(§2) Compounds were spotted on white 384-well tissue culture plates (Greiner, cat #781080) using an Echo 525 Acoustic liquid handler (Labcyte). Cells were grown to 80% confluence, detached if required, counted and 20 µl containing 2000–4000 cells per well was then seeded in each well and cultivated for three (4,000 cells seeded) and six days (2,000 cells seeded). […] Luciferase activity (reading out metabolic activity) was determined using the CellTiter-Glo 2.0 kit (CTG, Promega, cat #G9242) following the manufacturer’s instructions and luminescence was measured on a SpectraMaxi3 or Varioscan plate reader (Molecular Devices, Thermofisher).

MDA-MB-436 cells = test: as above; details: Homo sapiens; MDA-MB-436, six days; read-out: approximated IC50, metabolic activity
Source text: as §1, §2

MDA-MB-231 cells = test: Immunocytochemistry of NOTCH1, nuclei and giant cell count; parameters: Average Size nuclei / AVG Average Size nuclei: unit not given here; details: for fraction of cells with large nuclei / overall level of NOTCH1 (ICC) / AVG Giant cells/ total nucl (%) / AVG Average Size nuclei / Average Size nuclei / Count (nuclei per field) / Giant cells /field / Giant cells/ total nucl (%): MDA-MB-231, 2 µM; for fraction of cells with large nuclei / overall level of NOTCH1 (ICC): 24 h; for fraction of cells with large nuclei: compared to DMSO, Fig. 8D; for overall level of NOTCH1 (ICC): Fig. 8A; for Average Size nuclei / Count (nuclei per field) / Giant cells /field / Giant cells/ total nucl (%): single images; for cell morphology: overview in comparison to compound C, Supplemental Fig. 9
Description: 20,000 MDA-MB-231 cells were seeded on cover-slides (BD Bioscience), allowed to attach and treated with 2 µM compound for 24 h and 72 h upon reaching 80% confluence. For quantification of NOTCH1 signals and to monitor morphological changes immunocytochemistry staining to localize NOTCH1 was carried out as described above for C2C12 cells. Cellular morphology was visualized with Phalloidin (Thermofisher, cat # A22287), used at 1:2000 dilution and a NOTCH1 antibody used at 1:100 dilution (Cell signalling, cat #D6F11). Images were recorded using a Zeiss LSM 700 laser scanning microscope with a 40 × objective. Identical channel configuration and detector gain settings were used for quantification of fluorescence signals and a minimum of four images were recorded per condition. Secondary antibody control background signals were averaged and subtracted from each image and the same brightness and contrast adjustments were applied to all images before conducting histogram-based quantification of NOTCH1 signals. A 10 × objective was used for assessing morphological changes and a minimum of four and three images at 24 h and 72 h, respectively were recorded for quantification of nuclei count, size and number of giant cells. Images were processed using Fiji (ImageJ) software and objects were separated from background using Otsu thresholding until all nuclei were detectable. Nuclei objects were filled and nuclei particles were measured using size exclusion and circularity filter settings, 10-infinity (size) and 0,1–0,5 (circularity). Overlay images of nuclear stain and Phalloidin were used to manually count and annotate giant cells using Fiji’s cell counter.

HES1 in MDA-MB-231 cells = test: Western blot analysis of HES1 protein; details: MDA-MB-231, 2 µM, 48 h; Fig. 8C
Description: (§3) Cells were washed in ice-cold PBS and incubated for 30 min on ice with RIPA cell lysis buffer (Thermofisher, cat #89900) containing protease and phosphatase inhibitors (Thermofisher, cat #78442), scraped off and homogenized using a 25G syringe, and subsequently centrifugated for 10 min at > 13,000xg. […] After electrophoresis, gels were placed directly onto a TransBlot Turbo PVDF or nitrocellulose membrane (Bio-rad, cat #1704157 and cat #1704159) and transferred using the “HIGH MW” protocol (Bio-Rad). Subsequently, membranes were blocked for 1 h at room temperature using Clear Milk Blocking Buffer (ThermoFisher, cat #37587) supplemented with 0.1% Tween20 (Sigma-Aldrich, cat #P1379). Detection of antibody binding was performed by using Clarity Western ECL-Substrate (Bio-rad, cat #1705060S). Beta-Actin protein signals were used as a loading control. Western blot membranes were in some experiments stripped after development (indicated in the figure in each respective case) by washing the membranes twice for 10 min in PBS, followed by incubation in membranes in western blot stripping buffer (ThermoFisher, cat #21059) for 30 min at room temperature and gentle agitation. […] Protein expression levels of western blot bands were quantified using Fiji (V.2.16) with beta-Actin signals for normalisation (Supplemental Table 8). […]

HES-1 in JURKAT cells = test: Western blot analysis of HES1 protein; details: 2 µM, 48 h, Fig. 8C
Description: as §3

NOTCH1 = test: Cell surface biotinylation experiment; details: MDA-MB-231, 2 µM, 24 h; Fig. 8B
Description: For labelling of membrane proteins, MDA-MB-231 cells were grown to 80% confluency in 6-well cell culture dishes (ThermoFisher, cat #104675) and treated with 2 µM of the indicated compounds for 24 h. Plates were then put on ice for 10 min to slow down cellular metabolism and halt internalisation of membrane proteins. Next, 0.5 mg/ml Sulfo-NHS-Biotin (ThermoFisher, cat #21217) in PBS was added to every second well for 40 min and non-treated wells served as controls. Excess of biotin was removed by washing the plates with PBS followed by incubation with 100 mM glycin (Sigma-Aldrich, cat #G8898) in PBS on ice. Wells were washed twice with ice-cold PBS and next, 500 µl lysis buffer was added to each well (50 mM Tris–HCl pH 7.4, 150 mM NaCl, 1% Triton X-100, (Sigma-Aldrich, cat #X100), 2 mM EDTA, including protease and phosphatase inhibitors, Thermofisher, cat #78442). […] NOTCH1 TMICD western blot band intensity was quantified using Fiji (ImageJ) after background subtraction. Relative enrichment of NOTCH1 protein present at the cell surface was calculated with IP/Input ratio (IP NOTCH1/Input NOTCH1). Input and corresponding IP fraction of a treatment were separated on the same gel and bands were measured while non-saturated. Two independent biological replicates were assessed.

Compound: Cc1ccc2[nH]c3c(c2c1)CCOC31CCN(Cc2ccccc2-c2ccccc2)CC1 [compound B]
- IC50 (BT-20 cells): 3200 nM
- IC50 (MDA-MB-436 cells): 2000 nM

Compound: CC(C)(C(=O)NCC(F)(F)C(F)(F)F)C(=O)N[C@@H]1C(=O)Nc2ccccc2-c2ccccc21 [RO4929097, reference compound]
- fraction of cells with large nuclei (MDA-MB-231 cells): smaller increase
- overall level of NOTCH1 (ICC) (MDA-MB-231 cells): trend towards reduced levels
- AVG Giant cells/ total nucl (%) (MDA-MB-231 cells; 24h treatment, DMSO 1.4): 1.7%
- AVG Average Size nuclei (MDA-MB-231 cells; 24h treatment, DMSO 184.3): 170.6
- Average Size nuclei (MDA-MB-231 cells; 24h treatment, listed as GSI): 168.5 and 151.9 and 180.3 and 181.9
- Count (nuclei per field) (MDA-MB-231 cells; 24h treatment, listed as GSI): 1431.0 and 1167.0 and 1371.0 and 1390.0
- Giant cells /field (MDA-MB-231 cells; 24h treatment, listed as GSI): 23.0 and 26.0 and 17.0 and 24.0
- Giant cells/ total nucl (%) (MDA-MB-231 cells; 24h treatment, listed as GSI): 1.6% and 2.2% and 1.2% and 1.7%
- AVG Giant cells/ total nucl (%) (MDA-MB-231 cells; 72h treatment, DMSO 0.7): 1.2%
- AVG Average Size nuclei (MDA-MB-231 cells; 72h treatment, DMSO 184.1): 205.4
- Average Size nuclei (MDA-MB-231 cells; 72h treatment, listed as GSI): 177.5 and 237.7 and 201.1
- Count (nuclei per field) (MDA-MB-231 cells; 72h treatment, listed as GSI): 508.0 and 335.0 and 447.0
- Giant cells /field (MDA-MB-231 cells; 72h treatment, listed as GSI): 4.0 and 6.0 and 5.0
- Giant cells/ total nucl (%) (MDA-MB-231 cells; 72h treatment, listed as GSI): 0.8% and 1.8% and 1.1%
- cell morphology (MDA-MB-231 cells): moderate effect

Compound: COc1cccc(CNc2ccc(N3CCCCC3)cc2)c1OCc1cccs1 [compound C]
- HES1 protein levels (HES1 in MDA-MB-231 cells): reduction in HES1 levels
- level of HES-1 protein (HES-1 in JURKAT cells): reduced
- NOTCH1 surface presentation (NOTCH1): not hindered
- fraction of cells with large nuclei (MDA-MB-231 cells): increased fraction
- overall level of NOTCH1 (ICC) (MDA-MB-231 cells): not affected
- AVG Giant cells/ total nucl (%) (MDA-MB-231 cells; 24h treatment, DMSO 1.4): 2.4%
- AVG Average Size nuclei (MDA-MB-231 cells; 24h treatment, DMSO 184.3): 211.1
- Average Size nuclei (MDA-MB-231 cells; 24h treatment): 215.8 and 220.5 and 221.4 and 186.7
- Count (nuclei per field) (MDA-MB-231 cells; 24h treatment): 1118.0 and 1274.0 and 861.0 and 1213.0
- Giant cells /field (MDA-MB-231 cells; 24h treatment): 26.0 and 28.0 and 22.0 and 30.0
- Giant cells/ total nucl (%) (MDA-MB-231 cells; 24h treatment): 2.3% and 2.2% and 2.6% and 2.5%
- AVG Giant cells/ total nucl (%) (MDA-MB-231 cells; 72h treatment, DMSO 0.7): 3.8%
- AVG Average Size nuclei (MDA-MB-231 cells; 72h treatment, DMSO 184.1): 267.6
- Average Size nuclei (MDA-MB-231 cells; 72h treatment): 254.0 and 270.2 and 244.9 and 301.2
- Count (nuclei per field) (MDA-MB-231 cells; 72h treatment): 251.0 and 246.0 and 215.0 and 208.0
- Giant cells /field (MDA-MB-231 cells; 72h treatment): 9.0 and 8.0 and 10.0
- Giant cells/ total nucl (%) (MDA-MB-231 cells; 72h treatment): 3.6% and 3.3% and 3.7% and 4.8%
- cell morphology (MDA-MB-231 cells): strongest effect
